Test results as given in ChEMBL document CHEMBL4483862, “Open-source discovery of chemical leads for next-generation chemoprotective antimalarials” (2018).

Tested on: Plasmodium berghei
Experiment: Luciferase/luciferin-expressing antifolate-resistant parasites were used to infect a culture of HepG2 cells that were pre-incubated with compounds. Infected hepatocytes emit light due to the luciferase reaction. Assay results are presented as the percent inhibition of light emission compared to control. […]
Type: functional
Details: sporozoite; for IC50: read-out: LUCIFERASE INFECTION ASSAY - IC50; for IC90: read-out: LUCIFERASE INFECTION ASSAY - IC90

| Compound | IC50 [µM] | IC90 [µM] |
| --- | --- | --- |
| COc1ccc(/C=C(/C(=O)c2cccs2)N2C=CC=CC2=C(C#N)C#N)cc1 | > 10 | > 10 |
| Cc1cnc(C(=O)OCC(=O)NCCc2ccccc2)cn1 | > 10 | > 10 |
| Cc1c(Cl)cccc1N=C(NS(=O)(=O)c1cccs1)c1ccccc1 | > 10 | > 10 |
| Cc1nn(-c2ccccc2)c(N2CCCC2)c1/C=N/Nc1ccc(S(N)(=O)=O)cc1[N+](=O)[O-] | 9.05 | > 10 |
| N=C(N)N/N=C/c1ccc(N(c2ccccc2)c2ccccc2)cc1 | 8.03 | 9.95 |
| C/C(=N\N1CCCCC1)c1ccccc1O | > 10 | > 10 |
| Cc1ccc2c(c1)s/c(=N/C(=O)c1cccs1)n2C | 2.27 | > 10 |
| NS(=O)(=O)c1ccc(N/N=C/c2cn(-c3ccccc3)nc2-c2cccs2)c([N+](=O)[O-])c1 | > 10 | > 10 |
| COC(=O)c1ccc(COc2ccc(/C=N/Nc3ccnc4cc(Cl)ccc34)cc2OC)cc1 | > 10 | > 10 |
| O=C(OCN1C(=O)c2ccccc2C1=O)c1ccc(OCC2CCCO2)cc1 (configuration not stated) | > 10 | > 10 |
| O=C(N/N=C/c1c(Cl)nc2ccccn2c1=O)c1ccc(F)cc1 | > 10 | > 10 |
| O=C(/C=C/c1cn(-c2ccccc2)nc1-c1cccnc1)Nc1nc(-c2ccccn2)cs1 | 5.33 | 8.39 |
| CN(Cc1ccsc1)c1nc(C(F)(F)F)nc2ccccc12 | > 10 | > 10 |
| CCN1C(c2ccc(C)cc2)=CS/C1=C(/C#N)c1nnc2n1CCCCC2 | > 10 | > 10 |
| CN(Cc1nccn1C(F)F)c1ncnc2sccc12 | > 10 | > 10 |
| O=C(CC1(C(F)(F)F)OCCO1)Nc1ccc(C(OC(=O)c2ccc(F)cc2)(C(F)(F)F)C(F)(F)F)cc1 | > 10 | > 10 |
| CC(OC(=O)c1cccnc1N)C(=O)Nc1ccc2ccccc2c1 (configuration not stated) | > 10 | > 10 |
| Cc1cc(N2CCN(c3nc(C)cc(C)c3C#N)CC2)nc(C(C)C)n1 | > 10 | > 10 |
| CCN(CC)S(=O)(=O)c1ccc(C(=O)Nc2ccc(C34CC5CC(CC(O)(C5)C3)C4)cc2)cc1 | > 10 | > 10 |
| O=C(NC(=S)NN(Cc1ccccc1)c1ccccc1)C12CC3CC(CC(C3)C1)C2 | > 10 | > 10 |
| Cc1nc2ccccc2c(C)c1CC(=O)NCc1coc(-c2cccs2)n1 | > 10 | > 10 |

| Compound | IC50 [µM] | IC90 [µM] |
| --- | --- | --- |
| CCc1ccc(-c2nc(Cn3cnc4ccccc4c3=O)cs2)cc1 | > 10 | > 10 |
| CC(/N=c1\ccccn1C(=O)Nc1ccc(Cl)c(Cl)c1)c1ccco1 (configuration not stated) | 6.62 | 9.14 |
| CC(c1ccc(S(C)(=O)=O)cc1)N(C)S(=O)(=O)c1ccccc1F (configuration not stated) | > 10 | > 10 |
| Cc1cc(C(=O)CSc2nnc(C3CC3)[nH]2)c(C)n1CCC1=CCCCC1 | > 10 | > 10 |
| CC1CCc2sc(C(=O)Nc3cccc4c3C(=O)NC4)cc2C1 (configuration not stated) | 3.61 | 4.22 |
| NC(=O)C1CCN(c2nc(-c3cccs3)nc3sc4c(c23)CCCC4)CC1 | > 10 | > 10 |
| COc1ccc(NS(=O)(=O)c2cc([N+](=O)[O-])ccc2NNC(=S)NC2CCCCC2)cc1 | > 10 | > 10 |
| CNc1snc(C)c1C(=O)NC(C)c1ccc(OC(F)F)cc1 (configuration not stated) | 8.84 | 9.96 |
| Cn1c[n+](C2=C(NS(=O)(=O)c3ccc([N+](=O)[O-])cc3)C(=O)c3ccccc3C2=O)c2ccccc21 | 2.53 | 5.03 |
| C(=N\Nc1ncnc2sc3c(c12)CCCC3)/c1c(-c2ccccc2)n(-c2ccccc2)c2ccccc12 | > 10 | > 10 |
| COC(=O)C1=C(C)NC(C)=C(C(=O)OC)C1c1cc(NC(=O)NC2CCCCC2)ccc1OC(F)F | > 10 | > 10 |
| N#C/C(=C\c1sc(N2CCCCC2)nc1-c1ccccc1)c1nnc2n1CCCCC2 | > 10 | > 10 |
| CCN(CC)S(=O)(=O)c1cccc(NC(=O)C23CC4CC(C2)CC(c2ccc(C)cc2)(C4)C3)c1 | > 10 | > 10 |
| Oc1ccc(CNC(c2ccc3c(c2)CCC3)c2cccs2)cc1 (configuration not stated) | > 10 | > 10 |
| CCOC(/C=C1\Sc2c(ccc3c2CCCC3)N1CC)=C1/SC(=S)N(CC)C1=O | > 10 | > 10 |
| N#CC(c1nc(-c2ccc(Cl)cc2)cs1)N1CCc2ccccc2C1 (configuration not stated) | > 10 | > 10 |
| COc1ccccc1CNC(=O)c1cc(Cl)ccc1OC | > 10.8 | > 10.8 |
| O=C(/C=C/c1ccc([N+](=O)[O-])s1)Nc1ccc(F)cc1F | 8.88 | > 10 |
| CC(c1cc2ccccc2o1)N(C)C(=O)Cc1ccccc1F (configuration not stated) | > 10 | > 10 |
| O=C(Cc1ccccc1)NCC(=O)N1CCOC(c2ccccc2)C1 (configuration not stated) | > 10 | > 10 |
| Cc1nc(SCC(=O)N(C)Cc2cnn(Cc3ccccc3)c2)c2c(C)c(C)sc2n1 | > 10 | > 10 |

| Compound | IC50 [µM] | IC90 [µM] |
| --- | --- | --- |
| O=C(N/N=C/C1=C(N2CCOCC2)C(=C\c2ccccc2)/CC1)c1ccco1 | 2.96 | 3.47 |
| COC(=O)c1cc2c(N)c(C(=O)c3cc(C#N)c(SC)nc3C)sc2nc1C | 5.83 | > 10 |
| Cc1nc(Sc2ncnc3scc(-c4ccc(F)cc4)c23)oc1C | > 10 | > 10 |
| Cc1cccc(NS(=O)(=O)c2cc(C(=O)OCC(=O)Nc3ccc(F)c(F)c3F)ccc2C)c1 | > 10 | > 10 |
| CC(C)c1ccc(C(=O)N2CC(C(=O)N3CCOCC3)Oc3ccccc32)cc1 (configuration not stated) | > 10 | > 10 |
| Cc1nn(-c2ccccc2)c2c1C(C(F)(F)F)(C(F)(F)F)OC(c1cccc(S(=O)(=O)N3CCCCC3)c1)=N2 | > 10 | > 10 |
| CN(C)S(=O)(=O)c1cccc(NC(=O)c2ccc3c(c2Cl)C(=O)c2ccccc2C3=O)c1 | 8.82 | > 10 |
| CC(=O)n1c(Nc2ccc(F)cc2)c(Sc2ccccc2[N+](=O)[O-])c2ccccc2c1=O | 5.95 | > 10 |
| O=C(Nc1ccccc1SCc1ccsc1)C1CCCCC1 | > 10 | > 10 |
| O=c1[nH]c2ccccc2c(=O)n1CC1(N2CCCCC2)CCCCC1 | > 10 | > 10 |
| O=C(Nc1cccc(SC(F)(F)C(F)(F)C(F)(F)F)c1)C1(S(=O)(=O)c2ccccc2)CC1 | > 10 | > 10 |
| CC(NC(=O)NCc1ccccc1)c1ccc2ccccc2c1 (configuration not stated) | > 10 | > 10 |
| Clc1ccc(OC2OCCOC2Oc2ccc(Cl)cc2Cc2ccccc2)c(Cc2ccccc2)c1 (configuration not stated) | > 10 | > 10 |
| O=C1NC(c2ccccc2)=C(C(=O)C(F)(F)F)C(c2ccc(OC(F)F)cc2)N1 (configuration not stated) | > 10 | > 10 |
| Cc1nn(-c2ccc(Cl)cc2)c2sc(C(=O)NC(C)(C)CC(C)(C)C)cc12 | > 10 | > 10 |
| CCOc1ccc2nc(SCC(=O)N3Cc4ccccc4CC3C(=O)O)sc2c1 (configuration not stated) | > 10 | > 10 |
| Cc1nn(-c2ccccc2)c(Cl)c1C(=O)N1CCN(C(c2ccccc2)c2ccccc2)CC1 | > 10 | > 10 |
| NC(=O)c1cc(Cl)ccc1OCc1ccc(OC(F)(F)F)cc1 | > 10 | > 10 |
| N#C/C(=C\c1ccc(OC(=O)c2cccnc2)cc1)c1nnc2n1CCCCC2 | > 10 | > 10 |
| CCC(C)(C)NC(=O)CSC(c1ccc(F)cc1)c1ccc(F)cc1 | > 10 | > 10 |
| Cc1c(Sc2ccc(F)cc2)c2ccccn2c1/C(=N\S(=O)(=O)c1cccs1)c1ccccc1 | > 10 | > 10 |

| Compound | IC50 [µM] | IC90 [µM] |
| --- | --- | --- |
| CCOC(=O)c1c(-c2ccc(Cl)cc2)csc1Nc1nc(S(=O)(=O)c2ccc(Cl)cc2)c(Cl)s1 | 5.47 | > 10 |
| O=[N+]([O-])c1ccc(NN=C2CCSC2)c(S(=O)(=O)Nc2ccc(Cl)cc2)c1 | > 10 | > 10 |
| COc1ccc(NS(=O)(=O)c2cc(NC(=O)c3cc(S(=O)(=O)Nc4ccc(Cl)cc4)ccc3Cl)ccc2N2CCOCC2)cc1 | > 10 | > 10 |
| O=C(/C=C/c1cc([N+](=O)[O-])ccc1OC(F)F)N1CCN(C(c2ccccc2)c2ccccc2)CC1 | > 10 | > 10 |
| NC(=O)c1c(NC(=O)/C=C/c2cn(-c3ccccc3)nc2-c2cccnc2)sc2c1CCCC2 | > 10 | > 10 |
| CNC(=O)c1ccc(CN(Cc2ccco2)Cc2cccc3cccnc23)cc1 | > 10 | > 10 |
| CN(C)S(=O)(=O)c1cccc(C(=O)N(Cc2ccccc2)CC(O)COC(c2ccccc2)c2ccccc2)c1 (configuration not stated) | > 10 | > 10 |
| O=C(Nc1nc(-c2cccs2)c(C(=O)C(F)(F)F)s1)c1ccc(S(=O)(=O)N2CCCCC2)cc1 | 9.17 | > 10 |
| O=C(c1nn(-c2ccccc2)c2c1CCC2)N1CCn2c1nc1ccccc12 | > 10 | > 10 |
| CCCn1nc(C(=O)N2CC(C)CC(C)C2)ccc1=O (configuration not stated) | > 10 | > 10 |
| COc1cc(-c2cc(C(=O)N/N=C3/C(=O)N(CC(C)C)c4ccccc43)c3ccccc3n2)cc(OC)c1OC | > 10 | > 10 |
| Cc1cc(=O)nc(N/N=C2/CCc3ccccc3C2)[nH]1 | 5.6 | > 10 |
| Cc1nccn1Cc1cccc(CNS(=O)(=O)c2ccc3ccccc3c2)c1 | > 10 | > 10 |
| Cc1cc(C)c2c(C)c(C(=O)Nc3nc4ccccc4s3)sc2n1 | 0.841 | 1.17 |
| O=S(=O)(c1ccccc1)N1CN(c2ccc(N3CCOCC3)cc2)c2nc3ccccc3nc21 | > 10 | > 10 |
| Cc1nnc(SCCCc2nc(-c3ccncc3)no2)n1Cc1ccccc1 | > 10 | > 10 |
| CCn1c2ccccc2c2cc(/C=C(/C(=O)c3ccccc3)c3nc4ccccc4[nH]3)ccc21 | 9.13 | > 10 |
| CN(c1ccccc1)S(=O)(=O)c1cc(C(=O)c2nnc(-c3ccc(Cl)cc3)o2)ccc1Cl | > 10 | > 10 |
